Experiment: mn = molality of the nth substance listed, in mol/kg
Settings: Liquid, Vibrating tube method

[Cl-].[Na+] [sodium chloride] + O
mass density [kg/m3]
Settings | 900 kPa | 9900 kPa | 19900 kPa | 29900 kPa | 39900 kPa | 49900 kPa | 59900 kPa | 68400 kPa
298.12 K, m1 = 1.06 | 1038.78 | 1042.49 | 1046.61 | 1050.58 | 1054.45 | 1058.27 | 1061.93 | 1065.11
298.12 K, m1 = 3.16 | 1111.08 | 1114.33 | 1117.89 | 1121.4 | 1124.91 | 1128.21 | 1131.46 | 1134.29
298.12 K, m1 = 6 | 1194.53 | 1197.36 | 1200.44 | 1203.47 | 1206.51 | 1209.49 | 1212.31 | 1214.78
323.07 K, m1 = 1.06 | 1028.45 | 1032.1 | 1036.09 | – | 1043.77 | 1047.49 | 1051.1 | 1054.12
323.07 K, m1 = 3.16 | 1098.8 | 1102.1 | 1105.63 | 1109.07 | 1112.54 | 1115.9 | 1119.2 | 1121.87
323.07 K, m1 = 6 | 1180.58 | 1183.46 | 1186.57 | 1189.69 | 1192.73 | 1195.77 | 1198.7 | 1201.09
348.04 K, m1 = 1.06 | 1014.93 | 1018.61 | 1022.67 | 1026.61 | 1030.49 | 1034.25 | 1037.94 | 1041.08
348.04 K, m1 = 3.16 | 1084.57 | 1087.94 | 1091.54 | 1095.09 | 1098.65 | 1101.95 | 1105.34 | 1108.22
348.04 K, m1 = 6 | 1165.53 | 1168.53 | 1171.76 | 1174.98 | 1178.07 | 1181.15 | 1184.21 | 1186.78
372.99 K, m1 = 1.06 | 998.89 | 1002.77 | 1007 | 1011.16 | 1015.15 | 1019.09 | 1022.88 | –
372.99 K, m1 = 3.16 | 1068.6 | 1072.14 | 1075.95 | 1079.61 | 1083.24 | 1086.77 | 1090.25 | –
372.99 K, m1 = 6 | 1149.58 | 1152.7 | 1156.09 | 1159.48 | 1162.74 | 1165.95 | 1169 | –

Reference: the NIST ThermoML archive (doi:10.1021/je2013704)
